# Assays:
# [1] = test system: Chronic Constriction Injury (CCI) rats, thermal hyperalgesia; assay: Test C: Neuropathic pain model (Chronic Constriction Injury), thermal hyperalgesia paw-withdrawal; format: in vivo; conditions: Rattus norvegicus; for inhibition in vivo at 30 mg/kg/day / inhibition in vivo at 15 mg/kg/day: oral t.i.d., read-out: Test C (% Inh.): percent decrease in hyperalgesia at the MED; for minimal effective dose: po, 120 h, orally three times daily for 5 days, read-out: Test C MED (minimum effective dose)
# From the text: Test C: Neuropathic Pain Model (Chronic Constriction Injury):
# (Mean of vehicle group−Mean of compound group)/(Mean of vehicle group)×100
# [2] = test system: formalin-induced nociceptive behaviors in rats; assay: Test B: Formalin test (formalin-induced nociceptive behaviors, paw flinches); format: in vivo, rat; conditions: dosed three hours prior to formalin; for Test B First phase Dose (% Inh.): % inhibition of nociceptive response: first phase (0-5 min); for Test B Second phase Dose (% Inh.): % inhibition of nociceptive response: second phase (20-35 min)
# Description: In the test, two distinctive phases of formalin-induced behaviors are observed. A first phase response, caused by acute nociception to the noxious chemical (formalin) injected into the paw, occurs between zero and five minutes. […] After the quiescent period a second phase response, caused by sensitization of the central neurons in the dorsal horn, occurs after 15 minutes and lasts up to 60 minutes. Sensitization of the central neurons in the spine augments a noxious afferent input and causes a stronger pain barrage to be transmitted to the brain. Therefore, inhibition of the second phase response indicates a central mechanism of drug action.
# The procedure for the formalin test is as follows: male rats are placed in a plexiglass chamber and observed for 30-45 min. to observe their baseline activity. Animals are either pretreated with vehicle or with different doses of a test compound. Animals are dosed with vehicle or test compound three hours prior to injection of 0.05 mL of sterile 1% formalin under the dorsal skin of a hind paw. The number of paw flinches (responses) during the first phase (0-5 min.) and the second phase (20-35 min.) are scored and recorded. Flinch response is compared with the mean score of a saline control group and calculated as percentage inhibition. […] First phase responses may be inhibited by compounds that act peripherally and by compounds that act centrally.
# Student's t-test was used for statistical analysis to determine the significance of compound effects. Data are reported as a dose that yielded a % inhibition of a response.
# [3] = biological target: T1, NMDA receptor glycine site (Rattus norvegicus, UniProt P35439); assay: Test A: Inhibition of binding of [3H]-MDL105,519 to brain membranes; conditions: [3H]MDL105,519 1.2 nM, brain membranes (rat and human membranes described; table does not say which)
# T1 construct: brain membranes bearing the receptor; tissue Analytical Biological Services Inc; host or cells: rat brain membranes (cerebral cortex and hippocampus, male Sprague Dawley rats)
# From the text: Test A: Inhibition of Binding of [^3H]-MDL105,519:
# Binding of compounds to the NMDA receptor glycine site may be assessed by measuring the ability of test compounds to inhibit the binding of tritiated MDL105,519 to brain membranes bearing the receptor.
# Briefly, fresh brain tissue including cerebral cortex and hippocampus from male Sprague Dawley rats was homogenized in 0.32 M sucrose and centrifuged at low speed to separate cellular membranes from other cellular components. The membranes were then washed 3 times using deionized water, followed by treatment with 0.04% Triton X-100. Finally, membranes were washed six times in 50 mM Tris citrate buffer, pH 7.4, and frozen at −80° C. until use.
# [^3H]MDL105,519 (72 Ci/mmol) was purchased from Amersham. Cold MDL105,519 was purchased from Sigma/RBI. […] On the day of the experiment, brain membranes were thawed at room temperature and suspended in 50 mM tris acetate buffer, pH 7.4 (“TAB”). Seventy-five micro grams per milliliter protein (by using the BioRad dye) were used for competition binding. The experiments were carried out using 96-well plates. […] Non specific binding was determined by using 100 μM of unlabeled MDL105,519. […] After incubation, unbound [^3H]MDL105,519 was removed by filtration onto GF/B Unifilter plates using a Packard harvester. Filters were washed four times with ice cold TAB (total of 1.2 mL buffer). The plates were dried overnight at room temperature and bound radioactivity was measured on a Packard TopCount after the addition of 45 μL per well of the MICROSCINT O.
# Human brain membranes were obtained from Analytical Biological Services Inc., and assays were performed as described for rat membranes.
# Data was analyzed using a Microsoft Excel spreadsheet and GraphPad Prizm software and potency of compounds is expressed as the Ki (nM).
Compound,inhibition in vivo at 30 mg/kg/day [1],minimal effective dose [1],Ki [3],inhibition in vivo at 15 mg/kg/day [1],other results
"CS(=O)(=O)O.O=c1c2ccc(Cl)cc2[nH]c2c(O)nn(Cc3cnccn3)c(=O)c12 [Ex. 6, 7-Chloro-4-hydroxy-2-(pyrazin-2-ylmethyl)-1,2,5,10-tetrahydropyridazino[4,5-b]quinoline-1,10-dione methanesulfonate]",64%,30 mg/kg/day,–,–,–
"CS(=O)(=O)O.O=c1c2ccc(Cl)cc2[nH]c2c(O)nn(Cc3cccnc3)c(=O)c12 [Ex. 2, 7-Chloro-4-hydroxy-2-(3-pyridylmethyl)-1,2,5,10-tetrahydropyridazino[4,5-b]quinoline-1,10-dione Methanesulfonate]",59%,30 mg/kg/day,–,–,Test B First phase Dose (% Inh.): % inhibition of nociceptive response ([2]; dose 200 (dose unit not given)): 200 (74%); Test B Second phase Dose (% Inh.): % inhibition of nociceptive response ([2]; dose 200 (dose unit not given)): 200 (71%)
"O=c1c2ccc(Cl)cc2[nH]c2c(O)nn(Cc3ccco3)c(=O)c12 [Ex. 9, 7-Chloro-4hydroxy-2-(furan-2-ylmethyl)-1 2,5,10-tetrahydropyridazino[4,5-b]quinoline-1,10-dione]",–,15 mg/kg/day,61 nM,77%,Test B First phase Dose (% Inh.): % inhibition of nociceptive response ([2]; dose 200 (dose unit not given)): 200 (56%); Test B Second phase Dose (% Inh.): % inhibition of nociceptive response ([2]; dose 200 (dose unit not given)): 200 (46%); melting point: > 265 °C
"CS(=O)(=O)O.O=c1c2ccc(Cl)cc2[nH]c2c(O)nn(Cc3ccncc3)c(=O)c12 [Ex. 1, 7-Chloro-4-hydroxy-2-(4-pyridylmethyl)-1,2,5,10-tetrahydropyridazino[4,5-b]quinoline-1,10-dione methanesulfonate]",71%,30 mg/kg/day,–,–,Test B First phase Dose (% Inh.): % inhibition of nociceptive response ([2]; dose 70 (dose unit not given)): 70 (52%); Test B Second phase Dose (% Inh.): % inhibition of nociceptive response ([2]; dose 70 (dose unit not given)): 70 (57%)
"O=c1c2ccc(Cl)cc2[nH]c2c(O)nn(Cc3cc4ccccc4s3)c(=O)c12 [Ex. 13, 7-Chloro-4-hydroxy-2-(benzo[b]thien-2-ylmethyl)-1,2,5,10-tetrahydropyridazino[4,5-b]quinoline-1,10-dione]",–,15 mg/kg/day,–,1%,–
"O=c1c2ccc(Cl)cc2[nH]c2c(O)nn(Cc3ccsc3)c(=O)c12 [Ex. 12, 7-Chloro-4-hydroxy-2-(thien-3-ylmethyl)-1,2,5,10-tetrahydropyridazino[4,5-b]quinoline-1,10-dione]",–,15 mg/kg/day,–,17%,–
O=c1c2ccc(Cl)cc2[nH]c2c(O)nn(Cc3ccncn3)c(=O)c12,–,–,513 nM,–,–
"O=c1c2ccc(Cl)cc2[nH]c2c(O)nn(Cc3cccs3)c(=O)c12 [Ex. 11, 7-Chloro-4-hydroxy-2-(thien-2-ylmethyl)-1,2,5,10-tetrahydropyridazino[4,5-b]quinoline-1,10dione]",–,15 mg/kg/day,–,-17%,–
"O=c1c2ccc(Cl)cc2[nH]c2c(O)nn(Cc3ncc[nH]3)c(=O)c12 [Ex. 15, 7-Chloro-4-hydroxy-2-(imidazol-2-ylmethyl)-1,2,5,10-tetrahydropyridazino[4,5-b]quinoline-1,10-dione]",–,–,103 nM,–,–
"O=c1c2ccc(Cl)cc2[nH]c2c(O)nn(Cc3cc4ccccc4o3)c(=O)c12 [Ex. 4, 7-Chloro-4-hydroxy-2-benzo[d]furan-2-ylmethyl-1,2,5,10-tetrahydropyridazino[4,5-b]quinoline-1,10-dione]",44%,30 mg/kg/day,–,–,–
"O=c1c2ccc(Cl)cc2[nH]c2c(O)nn(Cc3ccnc4ccccc34)c(=O)c12 [Ex. 5, 7-Chloro-4-hydroxy-2-(quinolin-4-ylmethyl)-1,2,5,10-tetrahydropyridazino[4,5-b]quinoline-1,10-dione]",–,–,371 nM,–,–

# From patent US20030162783A1 (priority 1999, published 2003)
